Data reported in US10781158B2, “Methods of protecting an organ using tetrahydrocurcumin and phosphatidylcholine” (Bhupinder Singh, priority 2014, dated 2020).
“And” between values parts separate entries of the source, which are not always exact repeats. Equal values may be shown once.

Assays:
[1] = high dosages; cited from earlier work
5/6 nephrectomy rats [2] = assay: Galectin-3 (marker for cardiac fibrosis) in CKD rats; type: in vivo, Sprague-Dawley rats
Experimental: (§1) After 24 hours the rats were analyzed for proteinuria, Galectin-3, and C-reactive protein. Galectin-3 is a marker for cardiac fibrosis, and C-reactive protein is correlated with inflammation. Furthermore, a blood urea nitrogen test (BUN) was carried out with a creatinine and creatinine clearance blood test to evaluate the kidney functions and to look for nephrotoxicity.

5/6 nephrectomy rats [3] = assay: Blood urea nitrogen (BUN), creatinine and creatinine clearance blood tests (kidney function) in CKD rats; type: in vivo, Sprague-Dawley rats; parameters: Change in BUN: unit not given here
Text: (§2) For induction of CKD via nephron mass reduction, Sprague-Dawley rats underwent partial left nephrectomy followed by total right nephrectomy one week later. CKD rats were then randomized to 1% THC diet with polyenylphosphatidylcholine (PPC, 3 g/1000 kcal) vs. regular chow. […] Tail blood pressure measurement and 24-hour urine collection were done within a week of study termination. After 9 weeks on special diet, blood and kidneys were collected for biochemical and histologic analyses.
as §1
The blood urea nitrogen test (BUN) is primarily used with the creatinine test to evaluate kidney function and to help diagnose kidney disease. […] Therefore the pharmaceutical formulations comprising tetrahydrocurcumin with or without curcumin can be used to treat hypertension.

[4] = at acidic and at physiological pH; cited from earlier work
5/6 nephrectomy rats [5] = assay: Kidney fibrosis, image quantitative analysis of Trichrome stained kidney slides in CKD rats; type: in vivo, Sprague-Dawley rats; conditions: for Kidney slides Trichrome stain, Relative % area fibrosis: Table 10, relative to CTL Ave 1
Text: as §2
(§3) The experimental groups included healthy controls, CTL n=5, non-treated CKD, n=6 and CKD/THC n=6. At time of randomization to regular chow vs. THC diet, average blood urea nitrogen (BUN) was similar between the CKD groups (63.5+10.5 vs. 66+16.5 mg/dL).

[6] = previously shown; cited from earlier work
5/6 nephrectomy rats [7] = assay: Plasma C-reactive protein (CRP, inflammation) in CKD rats; type: in vivo, Sprague-Dawley rats
Text: as §2, §1

5/6 nephrectomy rats [8] = assay: Heart weight normalized to body weight (cardiac hypertrophy) in CKD rats; type: in vivo, Sprague-Dawley rats
Experimental: as §3
(§4) After inducing chronic kidney disease, the rats were then treated with a pharmaceutical formulation comprising tetrahydrocurcumin, or with a pharmaceutical formulation that had both tetrahydrocurcumin and curcumin. The control group consisted of five rats, ([…]), the rats with CKD (rat number 4, 15, 20, 23, 25, 31), rats with chronic kidney disease treated with tetrahydrocurcumin (rat number 8, 11, 12, 14, 19, 21, 18 and 27) and rats treated with a combination of tetrahydrocurcumin and curcumin (rat number 1, 2, 16, 24, 28, 7, 17, 29 and 30). The measurements for the average BUN, blood pressure, body weight, delta BUN, Hgb, and Heart weight/body weight for the four groups are shown in FIGS. 2A-2G.

5/6 nephrectomy rats [9] = assay: Proteinuria, 24-hour urine collection (total protein, urine protein/creatinine) in CKD rats; type: in vivo, Sprague-Dawley rats
Text: as §2, §1

5/6 nephrectomy rats [10] = assay: Tail blood pressure measurement in 5/6 nephrectomy CKD rats; type: in vivo, Sprague-Dawley rats; parameters: Diastolic tail BP: unit not given here
Text: as §2
Rats were induced to have chronic kidney disease via nephron mass reduction, Sprague-Dawley rats underwent partial left nephrectomy followed by total right nephrectomy one week later. CKD rats were then randomized to 1% THC diet with polyenylphosphatidylcholine (PPC, 3 g/1000 kcal) vs. regular chow. The rats were then administered a dose of Buprenex, a narcotic, that can cause kidney damage.
as §4

[11] = group AVE, CKD rats treated with THC
[12] = individual rats (Rat#), CKD rats treated with THC
[13] = Table 1, CKD/THC group n = 6, mean ± S.D.
[14] = Table 4, group AVE (THC 8 rats, THC/curcumin 9 rats)
[15] = Table 7, individual CKD rats, incl. rats 22 and 26
[16] = Table 1, CKD/THC group n = 6, 1% THC diet with PPC, 9 weeks, mean ± S.D.

COc1cc(CCC(=O)CC(=O)CCc2ccc(O)c(OC)c2)ccc1O [THC, tetrahydrocurcumin]
Dosage at which relatively safe [1]: 80 mgs/kg body weight | Galectin-3 (5/6 nephrectomy rats [2]; Table 3, individual CKD rats): 285.96 ng/mL and 450.48 ng/mL and 436.37 ng/mL and 768.79 ng/mL and 273.14 ng/mL and 182.38 ng/mL | Galectin-3 (5/6 nephrectomy rats [2]; Table 6, group AVE): 442.95 ng/mL | Galectin-3 (5/6 nephrectomy rats [2]; Table 6, individual CKD rats): 285.96 ng/mL and 450.48 ng/mL and 436.37 ng/mL and 768.79 ng/mL and 273.14 ng/mL | Galectin-3 (5/6 nephrectomy rats [2]; [11]): 390.94 ng/mL | Galectin-3 (5/6 nephrectomy rats [2]; [12]): 285.96 ng/mL and 450.48 ng/mL and 436.37 ng/mL | BUN lower at termination compared to the non-treated CKD group (5/6 nephrectomy rats [3]; CKD/THC group, 1% THC diet with PPC, 9 weeks, significantly lower): about 40% | BUN at termination (5/6 nephrectomy rats [3]; [13]): 52.1 ± 19.1 mg/dL | Plasma creatinine (5/6 nephrectomy rats [3]; [13]): 1.04 ± 0.22 mg/dL | Terminal BUN (5/6 nephrectomy rats [3]; Table 3, individual CKD rats): 44.9 mg/dL and 60.3 mg/dL and 80.6 mg/dL and 107.7 mg/dL and 69.9 mg/dL and 32.1 mg/dL and 32.6 mg/dL and 201.8 mg/dL and 62.3 mg/dL | Terminal Cr (5/6 nephrectomy rats [3]; Table 3, individual CKD rats): 0.76 mg/dL and 1.28 mg/dL and 1.25 mg/dL and 1.48 mg/dL and 1.19 mg/dL and 1.13 mg/dL and 1.01 mg/dL and 2.30 mg/dL and 0.81 mg/dL | CrCL (5/6 nephrectomy rats [3]; Table 3, individual CKD rats, creatinine clearance): 3.71 mL/min/kg and 1.90 mL/min/kg and 2.56 mL/min/kg and 2.27 mL/min/kg and 3.46 mL/min/kg and 2.91 mL/min/kg | Change in BUN (5/6 nephrectomy rats [3]; [14]): −6.0 | Terminal BUN (5/6 nephrectomy rats [3]; [14]): 61.3 mg/dL | Terminal BUN (5/6 nephrectomy rats [3]; Table 4, individual CKD rats): 44.9 mg/dL and 60.3 mg/dL and 80.6 mg/dL and 107.7 mg/dL and 32.1 mg/dL and 32.6 mg/dL and 69.9 mg/dL and 62.3 mg/dL | Change in BUN (5/6 nephrectomy rats [3]; Table 4, individual CKD rats, terminal minus randomization): −13.6 and −6.2 and −15.9 and 31.6 and −28.7 and −14.7 and 3.4 and −4.3 | CrCL (5/6 nephrectomy rats [3]; Table 6, group AVE): 2.80 mL/min/kg | Terminal Cr (5/6 nephrectomy rats [3]; Table 6, group AVE): 1.11 mg/dL | Terminal Cr (5/6 nephrectomy rats [3]; Table 6, individual CKD rats): 0.76 mg/dL and 1.28 mg/dL and 1.25 mg/dL and 1.48 mg/dL and 1.13 mg/dL and 1.01 mg/dL and 1.19 mg/dL and 0.81 mg/dL | CrCL (5/6 nephrectomy rats [3]; Table 6, individual CKD rats, creatinine clearance): 3.71 mL/min/kg and 1.90 mL/min/kg and 2.56 mL/min/kg and 2.27 mL/min/kg and 3.46 mL/min/kg and 2.91 mL/min/kg | Terminal BUN (5/6 nephrectomy rats [3]; [15]): 44.9 mg/dL and 60.3 mg/dL and 80.6 mg/dL and 107.7 mg/dL and 69.9 mg/dL and 32.1 mg/dL and 32.6 mg/dL and 201.8 mg/dL and 62.3 mg/dL | Terminal Cr (5/6 nephrectomy rats [3]; [15]): 0.8 mg/dL (2×) and 1.3 mg/dL and 1.2 mg/dL (2×) and 1.5 mg/dL and 1.1 mg/dL and 1.0 mg/dL and 2.3 mg/dL | Change in BUN (5/6 nephrectomy rats [3]; Table 8, group AVE of 6 rats): −13.9 | Terminal BUN (5/6 nephrectomy rats [3]; Table 8, group AVE of 6 rats): 52.1 mg/dL | Change in BUN (5/6 nephrectomy rats [3]; Table 8, individual CKD rats): −13.6 and −6.2 and −15.9 and −28.7 and −14.7 and −4.3 | Terminal BUN (5/6 nephrectomy rats [3]; Table 8, individual CKD rats): 44.9 mg/dL and 60.3 mg/dL and 80.6 mg/dL and 32.1 mg/dL and 32.6 mg/dL and 62.3 mg/dL | CrCL (5/6 nephrectomy rats [3]; [11]): 2.91 mL/min/kg | Terminal sCr (5/6 nephrectomy rats [3]; [11]): 1.04 mg/dL | CrCL (5/6 nephrectomy rats [3]; [12]): 3.71 mL/min/kg and 1.90 mL/min/kg and 2.56 mL/min/kg and 3.46 mL/min/kg and 2.91 mL/min/kg | Solubility in water [4]: poor solubility | Kidney fibrosis from Trichrome stained slides: relative % area (5/6 nephrectomy rats [5]; Table 1, CKD/THC group n = 6, mean ± S.D., CTL = 1): 1.16 ± 0.24 relative % area | Kidney slides Trichrome stain, Relative % area fibrosis (5/6 nephrectomy rats [5]; group Ave): 1.1551 | Kidney slides Trichrome stain, Relative % area fibrosis (5/6 nephrectomy rats [5]; individual kidneys): 1.396 and 1.321 and 1.345 and 0.8958 and 1.146 and 0.8269 | Increase of plasma levels on co-administration with a lipid carrier such as PPC [6]: 5 fold | CRP (5/6 nephrectomy rats [7]; Table 3, individual CKD rats): 2.53 mg/mL and 3.22 mg/mL and 2.15 mg/mL and 4.38 mg/mL and 2.70 mg/mL and 3.43 mg/mL and 2.36 mg/mL and 1.19 mg/mL and 2.57 mg/mL | CRP (5/6 nephrectomy rats [7]; Table 6, group AVE): 2.92 mg/mL | CRP (5/6 nephrectomy rats [7]; Table 6, individual CKD rats): 2.53 mg/mL and 3.22 mg/mL and 2.15 mg/mL and 4.38 mg/mL and 3.43 mg/mL and 2.36 mg/mL and 2.70 mg/mL and 2.57 mg/mL | CRP (5/6 nephrectomy rats [7]; [11]): 2.71 mg/mL | CRP (5/6 nephrectomy rats [7]; [12]): 2.53 mg/mL and 3.22 mg/mL and 2.15 mg/mL and 3.43 mg/mL and 2.36 mg/mL and 2.57 mg/mL | Heart wet weight normalized to body weight (5/6 nephrectomy rats [8]; [13]): 3.89 ± 0.61 g/kg | Heart wt (5/6 nephrectomy rats [8]; [14]): 1.068 g | Heart wt/body wt (5/6 nephrectomy rats [8]; [14]): 4.16 g/kg | Heart wt (5/6 nephrectomy rats [8]; Table 4, individual CKD rats): 1.169 g and 0.972 g and 1.165 g and 1.035 g and 0.854 g and 0.830 g and 1.530 g and 0.989 g | Heart wt/body wt (5/6 nephrectomy rats [8]; Table 4, individual CKD rats): 4.68 g/kg and 3.61 g/kg and 4.59 g/kg and 4.33 g/kg and 3.42 g/kg and 3.22 g/kg and 5.63 g/kg and 3.80 g/kg | Heart wt (5/6 nephrectomy rats [8]; Table 8, group AVE of 6 rats): 0.997 g | Heart wt/body wt (5/6 nephrectomy rats [8]; Table 8, group AVE of 6 rats): 3.89 g/kg | Heart wt (5/6 nephrectomy rats [8]; Table 8, individual CKD rats): 1.169 g and 0.972 g and 1.165 g and 0.854 g and 0.830 g and 0.989 g | Heart wt/body wt (5/6 nephrectomy rats [8]; Table 8, individual CKD rats): 4.68 g/kg and 3.61 g/kg and 4.59 g/kg and 3.42 g/kg and 3.22 g/kg and 3.80 g/kg | Proteinuria decreased compared to non-treated CKD animals (5/6 nephrectomy rats [9]; CKD/THC group, significantly decreased): ~50% | Urine protein/creatinine (5/6 nephrectomy rats [9]; [13]): 47.91 ± 15.42 mg/g | 24 hr total proteinuria (5/6 nephrectomy rats [9]; Table 3, individual CKD rats): 638.5 mg and 612.7 mg and 355.6 mg and 537.7 mg and 613.8 mg and 410.1 mg | Uprot/Cr ratio (5/6 nephrectomy rats [9]; Table 3, individual CKD rats): 63.18 mg/g and 64.86 mg/g and 30.56 mg/g and 46.32 mg/g and 43.50 mg/g and 37.43 mg/g | 24 hr total proteinuria (5/6 nephrectomy rats [9]; Table 5, group AVE): 528.07 mg | 24 hr total proteinuria (5/6 nephrectomy rats [9]; Table 5, individual CKD rats): 638.50 mg and 612.75 mg and 355.61 mg and 537.69 mg and 613.82 mg and 410.08 mg | 24 hr total proteinuria (5/6 nephrectomy rats [9]; [11]): 526.15 mg | Uprot/Cr ratio (5/6 nephrectomy rats [9]; [11]): 47.91 mg/g | 24 hr total proteinuria (5/6 nephrectomy rats [9]; [12]): 638.50 mg and 612.75 mg and 355.61 mg and 613.82 mg and 410.08 mg | Uprot/Cr ratio (5/6 nephrectomy rats [9]; [12]): 63.18 mg/g and 64.86 mg/g and 30.56 mg/g and 43.50 mg/g and 37.43 mg/g | Diastolic blood pressure (5/6 nephrectomy rats [10]; [16]): 75.8 ± 12.8 mmHg | Systolic blood pressure (5/6 nephrectomy rats [10]; [16]): 116.5 ± 11.1 mmHg | Diastolic tail BP (5/6 nephrectomy rats [10]; Table 5, group AVE): 76.3 | Systolic tail BP (5/6 nephrectomy rats [10]; Table 5, group AVE): 117.4 mmHg | Diastolic tail BP (5/6 nephrectomy rats [10]; Table 5, individual CKD rats): 95 and 69 and 60 and 78 and 81 and 67 and 77 and 83 | Systolic tail BP (5/6 nephrectomy rats [10]; Table 5, individual CKD rats): 132 mmHg and 103 mmHg and 124 mmHg (2×) and 116 mmHg and 113 mmHg and 106 mmHg and 121 mmHg | Diastolic tail BP (5/6 nephrectomy rats [10]; [11]): 75.8 | Diastolic tail BP (5/6 nephrectomy rats [10]; individual rats (Rat#), 5/6 nephrectomy CKD rats treated with THC): 95 and 69 and 60 and 81 and 67 and 83
